{"source": "patent US8580321B2", "about": "“Method for reducing the effects of chemotherapy using flagellin related polypeptides” (priority 2003, dated 2013)", "key": {"[1]": {"test_system": "vascular endothelial cells of villi", "assay": "TUNEL assay of apoptosis in intestinal tissue after irradiation", "type": "in vivo, mouse", "settings": "5 hours post irradiation, pretreated mice", "from_the_text": "In addition to purely histological observation of cell death and survival, we performed more specialized tests of apoptotic cell death in intestinal tissue using a TUNEL assay, which detects apoptosis-associated DNA fragmentation. These experiments allowed us to define with a high degree of probability cellular populations that are depleted by radiation and rescued by flagellin fragment treatment. The earliest radiation-induced alterations detectable in the small intestine after treatment with IR is apoptosis occurring in vascular endothelial cells of villi, which is seen as early as 5 hours post treatment (FIG. 17B). […] Effective protection of endothelial cells of the small intestine by the flagellin fragment may be due to expression of TLR5 in these cells."}, "mice": {"test_system": "mice", "assay": "Acute toxicity in mice", "type": "in vivo, mouse", "settings": "s.c. 0.5, 1, 2, 4 and 8 mg/kg, several days after administration", "procedure": "The lethal dose of Salmonella flagellin is between 1 mg/kg (systemic inflammation) and 10 mg/kg (100% lethality). We subcutaneously administered increasing doses of AA′ to mice (4 mice per dose group) at 0.5, 1, 2, 4 and 8 mg/kg. Due to the lower (˜60%) molecular weight, 8 mg/kg of AA′ correspond to a molar-equivalent dose of 13.3 mg/kg of flagellin. […] The reduced toxicity may be sue to the absence of the central pro-inflammatory domain in the AA′ fragment."}, "[2]": {"assay": "Pharmacokinetics: plasma levels by sandwich ELISA", "type": "in vivo, mouse", "settings": "ICR mice", "procedure": "Pharmacokinetic parameters (effective concentration and the duration of drug the presence in the organism) may be important for route, dose and time of drug administration. The pharmacokinetics of CBLB502 (AA′) were thus tested for four common routes of injection: intravenous (i.v.), subcutaneous (s.c.), intraperitoneal (i.p.) or intramuscular (i.m.). A radioprotective dose of CBLB502 (AA′), 0.2 mg/kg, was injected in 12-15 week old ICR mice and plasma samples were collected at the specified times after injection (at least 3 mice/point). The levels of CBLB502 in plasma were measured by sandwich ELISA using known concentrations of CBLB502 spiked in the control ICR plasma for calibration."}, "[3]": {"test_system": "MeI-7, MeI-29, HCT116, HT1080, NKE and MAEC cells", "assay": "Growth inhibition assay after gamma-irradiation in multiple cell lines", "type": "cell-based", "settings": "2 μg/ml, irradiated (10, 15 Gy) or not, 48 hours", "procedure": "Based on the results using A549 cells, several additional tumor cell lines (human melanoma MeI-7 and MeI-29, colon cancer HCT116, […] HT1080), immortalized kidney epithelial cells (NKE) and normal mouse aortal endothelial cells (MAEC)) were tested in growth inhibition assay after 10 and 15 Gy of gamma-irradiation, as compared with intact control, with or without pretreatment with CBLB502. Cells were seeded in 96-well plates night before the treatments. CBLB502 (2 μg/ml) was added to the wells 4 hrs, 1 hr or 10 min before irradiation (all points were done in quadruplicate). 48 hours later, methylene blue staining was performed to determine the relative amount of the viable cells in the wells. The percent of growth inhibition was calculated from the OD650 in control non-irradiated wells, taken as 0% inhibition."}, "colonic crypts": {"test_system": "colonic crypts", "assay": "BrdU incorporation in colonic crypts", "type": "in vivo, mouse", "settings": "BrdU injected 1 hour after CBLB502 i.p.", "procedure": "The colon is much less radiosensitive than small intestine. To further examine the relationship between reduced proliferation in the small intestine and radioprotection, we determined the effect of CBLB502 on BrdU incorporation in the colon. CBLB502 or PBS was injected i.p. in mice, BrdU was injected 1 hour later and samples of […] were obtained after additional 1.5 hours (FIG. 34)."}, "[4]": {"test_system": "NIH Swiss mice treated with cisplatinum"}, "[5]": {"settings": "CBLB502 0.04 mg/kg s.c. 30 min before cisplatinum 20 mg/kg i.p."}}, "data": [{"substance": "AA′: flagellin fragment (1-177)-Linker-(402-505), SEQ ID NO: 8", "values": [{"measurement": "apoptosis in vascular endothelial cells of villi", "setting": "[1]", "result": "almost completely blocked"}, {"measurement": "detrimental effects (mortality, morbidity, systemic inflammation)", "setting": "mice", "result": "no visible detrimental effects"}, {"measurement": "time with significant (>5 ng/ml) levels in mouse plasma", "setting": "[2]; 0.2 mg/kg intramuscular injection", "result": "> 3", "unit": "h"}, {"measurement": "disappearance from the bloodstream", "setting": "[2]; 0.2 mg/kg intravenous injection", "result": "more rapid disappearance"}, {"measurement": "levels and persistence in plasma by route", "setting": "[2]; 0.2 mg/kg, intramuscular or intraperitoneal injection", "result": "highest levels and longest persistence"}, {"measurement": "effect on tumor cell growth", "setting": "[3]", "result": "no or only a slight inhibitory effect"}, {"measurement": "BrdU incorporation in colon", "setting": "colonic crypts", "result": "no effect"}, {"measurement": "mean weight loss on any given day, cisplatinum 10 mg/kg with CBLB502", "setting": "[4]; CBLB502 0.04 mg/kg 30 min prior, n=11", "result": "≤ 15", "unit": "%"}, {"measurement": "weight response, cisplatinum 10 mg/kg with CBLB502", "setting": "[4]; CBLB502 0.04 mg/kg s.c. 30 min before cisplatinum 10 mg/kg i.p.", "result": "not losing weight"}, {"measurement": "maximum weight loss, cisplatinum 20 mg/kg with CBLB502", "setting": "[4]; [5]", "result": "≤ 20", "unit": "%"}, {"measurement": "survival of animals, cisplatinum 20 mg/kg with CBLB502", "setting": "[4]; [5]", "result": 100, "unit": "%"}, {"measurement": "behavior, cisplatinum with single injection of CBLB502", "setting": "[4]; FIG. 39D", "result": "active animals"}, {"measurement": "deaths, cisplatinum 10 mg/kg with CBLB502", "setting": "[4]; FIG. 39 experiment", "result": "No deaths"}, {"measurement": "mice that died, cisplatinum 10 mg/kg with CBLB502", "setting": "[4]; death at Day 13, remaining mice survived to at least Day 30", "result": "one mouse out of eleven"}]}]}
